One data set has as its system PRRSV. Kind of data set: PRRSV replication in infected Marc-145 cells treated with glycolysis inhibitors (Western blotting, TCID50, RT-PCR). It is filed as cell-based, porcine reproductive and respiratory syndrome virus. The note with it: for virus titer (TCID50) in cell culture medium / PRRSV ORF7 mRNA level in the cells (RT-PCR): 36 h, 2-DG 0-15 μM; for virus titer (TCID50) in cell culture medium / PRRSV ORF7 mRNA level in the cells (RT-PCR) / PRRSV N protein expression level (Western blotting): SO 0, 25, 50 mM; for PRRSV ORF7 mRNA level in the cells (RT-PCR) / PRRSV N protein expression level (Western blotting): Gal 10, 50, 100 μM; for PRRSV N protein expression level (Western blotting): 36 h after infection. On the procedure:
Highly pathogenic PRRSV strains BB0907 and Marc-145 cells are maintained in the laboratory and are conventional strains and cells disclosed in the prior art.
Marc-145 cells were cultured in a 96-well plate. When the cell confluence reached 70%, a nutrient solution was pipetted, and the cell surface was washed 3 times with PBS. Ten-fold serial dilutions of PRRSV were added to the cells and incubated at 37° C. for 1 h. A medium was replaced with fresh 2% FBS-DMEM. Virus titers were determined 5 days post inoculation (dpi) by endpoint dilution assay. 50% tissue culture infectious dose (TCID50) was calculated by a Reed-Muench method.
Cellular RNA was extracted following operating instructions of an OMEGA RNA virus extraction kit. After reverse transcription into cDNA, […].
By a 2-ΔΔCt method, the relative content of mRNA in each gene in the samples was calculated by a CT value.
(§1) To explore the effect of glycolysis in cells on PRRSV replication, an inhibitor of glycolytic pathway, 2-DG, was used to inhibit glycolysis in cells. […] After the Marc-145 cells were infected with PRRSV (0.01 MOI), the Marc-145 cells were treated with 0 μM, 2.5 μM, 5 μM, 10 μM and 15 μM of 2-DG respectively. After 36 hours, the inhibition efficiency of the 2-DG on PRRSV on the Marc-145 cells was detected by Western blotting.
To further verify the effect of glycolysis on PRRSV, PRRSV-infected Marc-145 cells were treated with a key enzyme in the last step of glycolysis, that is, an inhibitor of lactate dehydrogenase, sodium oxamate (SO). A control group was set up to detect whether there was a difference in the level of virus replication. […] After the Marc-145 cells were infected with PRRSV (0.01 MOI), the Marc-145 cells were treated with 0 mM, 25 mM and 50 mM of SO. 36 h after infection, the PRRSV N protein expression level, virus titer and PRRSV ORF7 mRNA level were detected by Western blotting, TCID50 and RT-PCR respectively.
PRRSV-infected Marc-145 cells were treated with an inhibitor of lactate dehydrogenase (Galloflavin, Gal), and a control group was set up to detect differences in viral replication levels. […] After Marc-145 cells were infected with PRRSV (0.01 MOI), the Marc-145 cells were treated with 10 μM, 50 μM and 100 μM of Gal. […] In addition, A PRRSV ORF7 mRNA level and the virus titer were detected by TCID50 and RT-PCR.

Another data set relates to PRRSV BB0907 strain. Put plainly: Treatment of PRRSV-infected piglets by oral administration. It is filed as in vivo. The note with it: for microscopic lung lesion scores: day 14, compared with challenge control group, P<0.01; for gross lung lesion scores: day 14, compared with positive control group, sodium oxamate P<0.01, Galloflavin P<0.001; for PRRSV viral load in the lungs / histopathological changes of lungs / gross lung lesions (observation) / clinical symptoms (observation) / clinical symptoms compared with the positive control group / weight growth rate / virus content in the serum (PRRSV genome copy number, qRT-PCR): oral daily, sodium oxamate 7 mg or Galloflavin 10 μg; for PRRSV viral load in the lungs: 14 dpi, P<0.0001; for histopathological changes of lungs: day 14; for gross lung lesions (observation): day 14, compared with the positive control group; for clinical symptoms (observation): days 0-14; for clinical symptoms compared with the positive control group: days 0-14, P<0.001; for weight growth rate: days 0-14, P>0.05 vs negative control; for virus content in the serum (PRRSV genome copy number, qRT-PCR): serum at 1, 4, 7, 10, 14 dpi. On the technique in general: In qPCR the cycle at which signal appears reflects the starting amount.

A further data set deals with Marc-145 cells. It is filed as cell-based. Particulars: monkey, 48 h. How it is done:
Marc-145 cells were cultured in 10% FBS-DMEM containing different concentrations of sodium oxamate (1-250 mM), Galloflavin (0-2.5 mM) and 2-deoxy-D-glucose (0-20 μM), and incubated at 37° C. for 48 h. Cell viability was detected with an enhanced CCK8 kit. DMSO was used as a negative control.
as §1
To further verify the effect of glycolysis on PRRSV, PRRSV-infected Marc-145 cells were treated with a key enzyme in the last step of glycolysis, that is, an inhibitor of lactate dehydrogenase, sodium oxamate (SO). […] 36 h after infection, the PRRSV N protein expression level, virus titer and PRRSV ORF7 mRNA level were detected by Western blotting, TCID50 and RT-PCR respectively.
PRRSV-infected Marc-145 cells were treated with an inhibitor of lactate dehydrogenase (Galloflavin, Gal), and a control group was set up to detect differences in viral replication levels. […] In addition, A PRRSV ORF7 mRNA level and the virus titer were detected by TCID50 and RT-PCR.

In general, inhibition refers to how much of the control response was suppressed. For `O=CC[C@@H](O)[C@H](O)[C@H](O)CO` [2-DG, 2-deoxy-D-glucose], in the data set on PRRSV, the “level of PRRSV replication (figure legend)” value (shortened to “level of PRRSV replication”) is “reduces the level of PRRSV replication”. Also, in the data set with PRRSV (PRRSV 0.01 MOI), the “virus titer (TCID50) in cell culture medium” value is “decreased in a dose-dependent manner” and the “PRRSV ORF7 mRNA level in the cells (RT-PCR)” value (“PRRSV ORF7 mRNA level” below) is listed as “decreased in a dose-dependent manner”. The inhibition at 5 µM in the data set with PRRSV (Porcine reproductive and respiratory syndrome virus, MARC145, concentration of 5 μM, PRRSV 0.01 MOI, after 36 hours, read-out: inhibition efficiency against PRRSV (Western blotting)) is roughly 50%.
Take `O=c1oc2c(cc1O)oc(=O)c1cc(O)c(O)c(O)c12` [Galloflavin]: the “level of PRRSV replication” value in the data set on PRRSV is listed as “reduces the level of PRRSV replication”. In the data set on PRRSV (PRRSV 0.01 MOI), the “PRRSV ORF7 mRNA level” value is “decrease the mRNA level of PRRSV in a dose-dependent manner” and the “PRRSV N protein expression level (Western blotting)” value is “decrease PRRSV replication in the cells in a dose-dependent manner”. In addition, in the data set on PRRSV BB0907 strain, the “microscopic lung lesion scores” value is given as “significantly lower than those of the challenge control group”; the “gross lung lesion scores” value is “more significantly lower”; the “PRRSV viral load in the lungs” value is reported as “significantly lower than that in the positive control group”; the “histopathological changes of lungs” value was “significantly alleviated, similar to those in the negative control group”. In the data set with PRRSV BB0907 strain, the “gross lung lesions (observation)” value is “significantly minor lung lesions”, the “clinical symptoms (observation)” value is listed as “no obvious clinical symptoms”, the “clinical symptoms compared with the positive control group” value was “significantly relieved clinical symptoms” and the weight growth rate entry is reported as “approximate to that of the negative control group”. For the same compound, in the data set with PRRSV BB0907 strain, the “virus content in the serum (PRRSV genome copy number, qRT-PCR)” value is listed as “significantly lower than that in the positive control group”.
With `NC(=O)C(=O)[O-].[Na+]` [sodium oxamate], the “concentration at which the substance starts to be toxic to the cells (CCK8)” value with Marc-145 cells worked out at 100000 µM. Further, the “level of PRRSV replication” value in the data set on PRRSV is “reduces the level of PRRSV replication”. Also, in the data set with PRRSV (PRRSV 0.01 MOI), the “virus titer (TCID50) in cell culture medium” value is “reduce PRRSV replication in the cells in a dose-dependent manner”, the “PRRSV ORF7 mRNA level” value is given as “reduce PRRSV replication in the cells in a dose-dependent manner” and the “PRRSV N protein expression level (Western blotting)” value is given as “reduce PRRSV replication in the cells in a dose-dependent manner”. Besides, in the data set with PRRSV BB0907 strain, the “microscopic lung lesion scores” value is listed as “significantly lower than those of the challenge control group”; the “gross lung lesion scores” value is reported as “significantly lower”; the “PRRSV viral load in the lungs” value is given as “significantly lower than that in the positive control group”; the “histopathological changes of lungs” value was “mild thickened alveolar septa and inflammatory cell infiltration”. For the same compound, in the data set on PRRSV BB0907 strain, the “gross lung lesions (observation)” value was “significantly minor lung lesions”, the “clinical symptoms (observation)” value is reported as “no obvious clinical symptoms”, the “clinical symptoms compared with the positive control group” value is recorded as “significantly relieved clinical symptoms” and the weight growth rate result is “approximate to that of the negative control group”. Also, the “virus content in the serum (PRRSV genome copy number, qRT-PCR)” value in the data set with PRRSV BB0907 strain is “significantly lower than that in the positive control group”.

For the origin of these results see patent US20260115214A1, “APPLICATION OF INHIBITORS OF GLYCOLYTIC PATHWAY IN PREPARATION OF DRUGS FOR PREVENTING AND TREATING PORCINE REPRODUCTIVE AND RESPIRATORY SYNDROME VIRUS (PRRSV) INFECTION” (NANJING AGRICULTURAL UNIVERSITY, priority 2020, published 2026).
